Literature values as cited in paper PMC2613028, “Discovery of a Non-Peptidic Inhibitor of West Nile Virus NS3 Protease by High-Throughput Docking” (PLoS Neglected Tropical Diseases, 2009).
Where two headings read alike, the source gives them in different places.

System: WNV protease
Design: method as in PMID 17064076
Conditions: peptide aldehyde inhibitors

benzoyl-norleucine-lysine-arginine-arginine-aldehyde [Bz-Nle-Lys-Arg-Arg-H]
IC50: 4.1 µM | IC50 (listed as Bz-nKRR-H): 4 µM
